In paper PMC4735018, “De Novo Evolutionary Emergence of a Symmetrical Protein Is Shaped by Folding Constraints” (Cell, 2016):

Tests used:
AncA1B = test system: T1, AncA1B; test: isothermal titration calorimetry; type: binding, synthetic construct; conditions: 25 °C, 20 mM Tris, 150 mM NaCl, pH 7.6; 10 µM propeller; single site model, five near-identical non-cooperative sites
T1 construct: single ancestral motif of about 47 residues, blade frame, from second ancestral library; homo-pentamer; E. coli (pET29), GlcNAc-resin purified

AncB1B = test system: T2, AncB1B; test: isothermal titration calorimetry; type: binding, synthetic construct; conditions: 25 °C, 20 mM Tris, 150 mM NaCl, pH 7.6; 10 µM propeller; single site model, five near-identical non-cooperative sites
T2 construct: single ancestral motif of about 47 residues, blade frame, first-library variant with F23L from error-prone PCR; homo-pentamer; E. coli (pET29), GlcNAc-resin purified

Structure (SMILES): CC(=O)N[C@H]1C(O)O[C@H](CO)[C@@H](O)[C@@H]1O (some centres unmarked) [GlcNAc]
- binding affinity (AncA1B): five different parameters were measured for representative variants along the evolutionary trajectory
- binding affinity (AncB1B): The earliest evolutionary stage of single motifs was sampled using AncA1B and AncB1B
